From BindingDB's records for doi:10.1016/j.bmcl.2020.127533 (Glaxosmithkline, 2020) come the findings set out here.

By IC50 is commonly meant the point on the concentration scale where inhibition reaches its midpoint. The low end stands for inhibition by little substance, the high end for a need for much substance.

For the test, the target named is Methionine aminopeptidase 2 (Homo sapiens) (UniProt P50579). Kind of test: Inhibition of MetAP2 (unknown origin).
Sequence of Methionine aminopeptidase 2 (Homo sapiens) (P50579 whole entry, looked up): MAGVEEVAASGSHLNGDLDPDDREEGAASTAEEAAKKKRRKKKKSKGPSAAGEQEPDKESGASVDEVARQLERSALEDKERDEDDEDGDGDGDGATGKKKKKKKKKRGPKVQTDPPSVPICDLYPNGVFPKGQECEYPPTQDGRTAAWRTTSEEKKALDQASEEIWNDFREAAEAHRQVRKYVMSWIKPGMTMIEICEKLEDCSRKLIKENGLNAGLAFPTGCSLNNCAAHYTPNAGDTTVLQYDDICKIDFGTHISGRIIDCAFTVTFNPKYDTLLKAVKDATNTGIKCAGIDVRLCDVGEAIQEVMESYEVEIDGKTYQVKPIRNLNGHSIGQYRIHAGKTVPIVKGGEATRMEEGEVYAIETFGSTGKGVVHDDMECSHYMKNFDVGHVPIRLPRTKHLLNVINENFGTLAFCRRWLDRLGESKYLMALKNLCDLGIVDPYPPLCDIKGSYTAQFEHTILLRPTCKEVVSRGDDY
The molecule `NC(=O)c1[nH]c2ccc(Cl)cc2c1-c1ccccc1` displayed an IC50 of 316 nM.

`CC(=O)c1[nH]c2ccc(Cl)cc2c1-c1ccccc1` yielded an IC50 of 1580 nM.

In turn, `O=C(O)c1[nH]c2ccc(Cl)cc2c1-c1ccccc1` showed an IC50 of 20000 nM.

Consider `NC(=O)c1[nH]c2c(Cl)cccc2c1-c1ccccc1`, for which 7940 nM corresponded to half-maximal inhibition (IC50).

In turn, `NC(=O)c1[nH]c2ccc(F)cc2c1-c1ccccc1` registered an IC50 of 631 nM.

For the molecule `NC(=O)c1[nH]c2ccccc2c1-c1ccccc1`, the IC50 stood at 2510 nM. Compared with the last molecule, the IC50 is about 4-fold higher.

For `NC(=O)c1[nH]c2cnccc2c1-c1ccccc1`, the IC50 was 6310 nM.

Regarding `NC(=O)c1[nH]c2ncc(Cl)cc2c1-c1ccccc1`, the IC50 was 1260 nM.

Turning to `NC(=O)c1[nH]c2ccc(Cl)c(F)c2c1-c1ccccc1`, the midpoint of inhibition, the IC50, lay at 3980 nM.

For the molecule `NC(=O)c1[nH]c2cc(F)c(Cl)cc2c1-c1ccccc1`, the IC50 was found to be 63 nM. This IC50 is about 63-fold lower than that of the molecule before.

`NC(=O)c1[nH]c2c(F)cc(Cl)cc2c1-c1ccccc1` showed an IC50 of 631 nM.

In the case of `COc1ccccc1-c1c(C(N)=O)[nH]c2ccc(Cl)cc12`, the IC50 is 100 nM.

Molecule `Cc1ccccc1-c1c(C(N)=O)[nH]c2ccc(Cl)cc12` returned an IC50 of 316 nM.

`NC(=O)c1[nH]c2ccc(Cl)cc2c1-c1ccccc1OC(F)(F)F` yielded an IC50 of 398 nM. The IC50 values of the last two molecules are within 1.5-fold of each other.

`CC(C)Oc1ccccc1-c1c(C(N)=O)[nH]c2ccc(Cl)cc12` came in with an IC50 of 25 nM.

In turn, `COc1ccccc1-c1c(C(N)=O)[nH]c2cc(F)c(Cl)cc12` returned an IC50 of 6.3 nM. This IC50 lies about 4-fold lower than the previous one.

The molecule `CC(C)Oc1ccccc1-c1c(C(N)=O)[nH]c2cc(F)c(Cl)cc12` yielded an IC50 of 5 nM.

Take `NC(=O)c1[nH]c2ccc(Cl)cc2c1-c1ccc(Cl)cc1`: half-maximal inhibition (IC50) required 398 nM.

On to `COc1ccc(-c2c(C(N)=O)[nH]c3ccc(Cl)cc23)cc1`, for which 126 nM corresponded to half-maximal inhibition (IC50).

As for `CN(C)c1ccc(-c2c(C(N)=O)[nH]c3ccc(Cl)cc23)cc1`, the midpoint of inhibition, the IC50, lay at 100 nM.

Regarding `N#Cc1ccc(-c2c(C(N)=O)[nH]c3ccc(Cl)cc23)cc1`, inhibition was half-maximal at 501 nM (IC50).

In turn, `NC(=O)c1[nH]c2ccc(Cl)cc2c1-c1ccc(C(=O)N2CCCC2)cc1` yielded an IC50 of 251 nM.

For `NC(=O)c1[nH]c2ccc(Cl)cc2c1-c1ccc(N2CCOCC2)cc1`, the midpoint of inhibition, the IC50, lay at 50 nM.

`CN1CCN(c2ccc(-c3c(C(N)=O)[nH]c4ccc(Cl)cc34)cc2)CC1`: the IC50 came to 25 nM. This IC50 lies about 2-fold lower than the previous one.

In the case of `CN(C)Cc1ccc(-c2c(C(N)=O)[nH]c3ccc(Cl)cc23)cc1`, the IC50 is 1000 nM.

In turn, `NC(=O)c1[nH]c2ccc(Cl)cc2c1-c1ccc(-c2ccn[nH]2)cc1` registered an IC50 of 251 nM. Compared with the last molecule, the IC50 is about 4-fold lower.

The molecule `CC(C)Oc1cc(N2CCNCC2)ccc1-c1c(C(N)=O)[nH]c2cc(F)c(Cl)cc12` returned an IC50 of 3.2 nM.

`CC(C)Oc1cc(N2CCNCC2)ccc1-c1c(C(N)=O)[nH]c2cc(F)c(F)cc12` displayed an IC50 of 2 nM.
